In patent publication US20240376073A1 (Hoffmann-La Roche Inc., priority 2021, published 2024):
Structures can show the parent of a compound that is named as a salt.

Each molecule was assayed on Acinetobacter baumannii ATCC17961 (assay: Antimicrobial susceptibility testing: 90% growth inhibitory concentration (IC90) determination). Conditions: Acinetobacter baumannii ATCC17961; Iso-Sensitest broth; growth by OD 600 nm over 16 h; 35±2° C.; read-out: ATCC 17961 IC90.
Assay type: cell-based
Method in brief: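 Twofold serial dilutions (e.g. 50 to 0.097 μM final) in Iso-Sensitest broth, inoculated at ~5×10^(5) CFU/ml, incubated at 35±2° C. OD600 read every 20 min over 16 h; IC90 derived from growth inhibition during logarithmic growth.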

Row | Structure (SMILES) | IC90
1 | Cn1c(-c2ccc(OC(F)F)c(F)c2F)cnc1C(=O)Nc1ccc(C(=O)N2CCN(C(=O)C3CCN(C(=O)C[N+](C)(C)C)CC3)CC2)c(Cl)c1 [Example B14, [2-[4-[4-[2-chloro-4-[[5-[4-(difluoromethoxy)-2,3-difluoro-phenyl]-1-methyl-imidazole-2-carbonyl]amino]benzoyl]piperazine-1-carbonyl]-1-piperidyl]-2-oxo-ethyl]-trimethyl-ammonium; formate] | 0.076 µM
2 | Cn1c(-c2ccc(OC(F)F)c(F)c2)cnc1C(=O)Nc1ccc(C(=O)N2CCN(C(=O)C[N+](C)(C)C)CC2)c(Cl)c1 [Example B15, [2-[4-[2-chloro-4-[[5-[4-(difluoromethoxy)-3-fluoro-phenyl]-1-methyl-imidazole-2-carbonyl]amino]benzoyl]piperazin-1-yl]-2-oxo-ethyl]-trimethyl-ammonium; formate] | 0.14 µM
3 | COc1ccc(-c2cnc(C(=O)Nc3ccc(C(=O)N4CCN(C(=O)C5CN(C(=O)C[N+](C)(C)C)C5)CC4)c(Cl)c3)n2C)c(F)c1F [Example B16, [2-[3-[4-[2-chloro-4-[[5-(2,3-difluoro-4-methoxy-phenyl)-1-methyl-imidazole-2-carbonyl]amino]benzoyl]piperazine-1-carbonyl]azetidin-1yl]-2-oxo-ethyl]-trimethyl-ammonium; formate] | 0.23 µM
4 | COc1ccc(-c2cnc(C(=O)Nc3ccc(C(=O)N4CC(NC(=O)C5CC[N+](C)(C)CC5)C4)c(Cl)c3)n2C)c(F)c1F [Example B17, N-[1-[2-chloro-4-[[5-(2,3-difluoro-4-methoxy-phenyl)-1-methyl-imidazole-2-carbonyl]amino]benzoyl]azetidin-3-yl]-1,1-dimethyl-piperidin-1-ium-4-carboxamide; formate] | 0.25 µM
5 | COc1ccc(-c2cnc(C(=O)Nc3ccc(C(=O)N4C[C@@H]5CN(C(=O)[C@@H]6CC[N+](C)(C)C6)C[C@@H]5C4)c(Cl)c3)n2C)c(F)c1F [Example B18, N-[4-[(3aS,6aR)-5-[(3R)-1,1-dimethylpyrrolidin-1-ium-3-carbonyl]-1,3,3a,4,6,6a-hexahydropyrrolo[3,4-c]pyrrole-2-carbonyl]-3-chloro-phenyl]-5-(2,3-difluoro-4-methoxy-phenyl)-1-methyl-imidazole-2-carboxamide; formate] | 0.3 µM
6 | COc1ccc(-c2cnc(C(=O)Nc3ccc(C(=O)N4C[C@H]5CN(C(=O)C[N+](C)(C)C)C[C@H]5C4)c(Cl)c3)n2C)c(F)c1F [Example B19, [2-[(3aS,6aR)-5-[2-chloro-4-[[5-(2,3-difluoro-4-methoxy-phenyl)-1-methyl-imidazole-2-carbonyl]amino]benzoyl]-1,3,3a,4,6,6a-hexahydropyrrolo[3,4-c]pyrrol-2-yl]-2-oxo-ethyl]-trimethyl-ammonium; formate] | 0.31 µM
7 | COc1ccc(-c2cnc(C(=O)Nc3ccc(C(=O)N4CCN(C(=O)C[N+](C)(C)C)CC4)c(Cl)c3)n2C)c(F)c1F [Example B20, [2-[4-[2-chloro-4-[[5-(2,3-difluoro-4-methoxy-phenyl)-1-methyl-imidazole-2-carbonyl]amino]benzoyl]piperazin-1-yl]-2-oxo-ethyl]-trimethyl-ammonium; formate] | 0.076 µM
8 | COc1ccc(-c2cnc(C(=O)Nc3ccc(C(=O)N4CCN(C(=O)C[N+](C)(C)C)CC4)c(C)c3)n2C)c(F)c1F [Example B21, [2-[4-[4-[5-(2,3-difluoro-4-methoxy-phenyl)-1-methyl-imidazole-2-carbonyl]amino]-2-methyl-benzoyl]piperazin-1-yl]-2-oxo-ethyl]-trimethyl-ammonium; formate] | 0.28 µM
9 | Cn1c(-c2ccc(OCF)cc2F)cnc1C(=O)Nc1ccc(C(=O)N2CCN(C(=O)C[N+](C)(C)C)CC2)c(Cl)c1 [Example B22, [2-[4-[2-chloro-4-[5-[2-fluoro-4-(fluoromethoxy)phenyl]-1-methyl-imidazole-2-carbonyl]amino]benzoyl]piperazin-1-yl]-2-oxo-ethyl]-trimethyl-ammonium; formate] | 0.17 µM
10 | CCc1cc(NC(=O)c2ncc(-c3ccc(OC)c(F)c3F)n2C)ccc1C(=O)N1CCC(C(=O)NCCOCC[N+](C)(C)C)CC1 [Example B23, 2-(2-(1-(4-(5-(2,3-difluoro-4-methoxyphenyl)-1-methyl-1H-imidazole-2-carboxamido)-2-ethylbenzoyl)piperidine-4-carboxamido)ethoxy)-N,N,N-trimethylethan-1-aminium iodide] | 0.41 µM
11 | Cn1c(-c2ccc(OCC#N)c(F)c2F)cnc1C(=O)Nc1ccc(C(=O)N2CCC(C(=O)N[C@H]3CC[N+](C)(C)C3)CC2)c(Cl)c1 [Example B24, (S)-3-(1-(2-chloro-4-(5-(4-(cyanomethoxy)-2,3-difluorophenyl)-1-methyl-1H-imidazole-2-carboxamido)benzoyl)piperidine-4-carboxamido)-1,1-dimethylpyrrolidin-1-ium formate] | 0.12 µM
12 | COc1ccc(-c2cnc(C(=O)Nc3ccc(C(=O)N4CCN(C(=O)[C@@H]5C[C@@H](O)C[N+]5(C)C)CC4)c(Cl)c3)n2C)c(F)c1F [Example B25, (2S,4R)-2-(4-(2-chloro-4-(5-(2,3-difluoro-4-methoxyphenyl)-1-methyl-1H-imidazole-2-carboxamido)benzoyl)piperazine-1-carbonyl)-4-hydroxy-1,1-dimethylpyrrolidin-1-ium formate] | 0.12 µM
13 | Cc1cc(NC(=O)c2ncc(-c3ccc(OCC#N)c(F)c3F)n2C)ccc1C(=O)N1CCN(C(=O)C2(O)CC[N+](C)(C)CC2)CC1 [Example B26, 4-(4-(4-(5-(4-(cyanomethoxy)-2,3-difluorophenyl)-1-methyl-1H-imidazole-2-carboxamido)-2-methylbenzoyl)piperazine-1-carbonyl)-4-hydroxy-1,1-dimethylpiperidin-1-ium formate] | 0.54 µM
14 | Cn1c(-c2ccc(OCC#N)c(F)c2F)cnc1C(=O)Nc1ccc(C(=O)N2CCN(C(=O)[C@@H]3C[C@](C)(O)C[N+]3(C)C)CC2)c(Cl)c1 [Example B27, (2S,4S)-2-(4-(2-chloro-4-(5-(4-(cyanomethoxy)-2,3-difluorophenyl)-1-methyl-1H-imidazole-2-carboxamido)benzoyl)piperazine-1-carbonyl)-4-hydroxy-1,1,4-trimethylpyrrolidin-1-ium formate] | 0.17 µM
15 | Cc1cc(NC(=O)c2ncc(-c3ccc(OCC#N)c(F)c3F)n2C)ccc1C(=O)N1CCN(C(=O)N[C@@H]2C[N+](C)(C)C[C@H]2O)CC1 [Example B28, (3R,4R)-3-(4-(4-(5-(4-(cyanomethoxy)-2,3-difluorophenyl)-1-methyl-1H-imidazole-2-carboxamido)-2-methylbenzoyl)piperazine-1-carboxamido)-4-hydroxy-1,1-dimethylpyrrolidin-1-ium formate] | 0.22 µM
16 | Cc1cc(NC(=O)c2ncc(-c3ccc(OCC#N)c(F)c3F)n2C)ccc1C(=O)N1CCN(C(=O)N[C@H]2C[N+](C)(C)C[C@@H]2O)CC1 [Example B29, (3S,4S)-3-(4-(4-(5-(4-(cyanomethoxy)-2,3-difluorophenyl)-1-methyl-1H-imidazole-2-carboxamido)-2-methylbenzoyl)piperazine-1-carboxamido)-4-hydroxy-1,1-dimethylpyrrolidin-1-ium formate] | 0.25 µM
17 | COc1ccc(-c2cnc(C(=O)Nc3ccc(C(=O)N4CCN(C(=O)[C@@H]5C[C@@](C)(O)C[N+]5(C)C)CC4)c(Cl)c3)n2C)c(F)c1F [Example B30, (2S,4R)-2-(4-(2-chloro-4-(5-(2,3-difluoro-4-methoxyphenyl)-1-methyl-1H-imidazole-2-carboxamido)benzoyl)piperazine-1-carbonyl)-4-hydroxy-1,1,4-trimethylpyrrolidin-1-ium formate] | 0.11 µM
18 | Cn1c(-c2ccc(OCC#N)c(F)c2F)cnc1C(=O)Nc1ccc(C(=O)N2CCC(C(=O)N3CC([N+](C)(C)C)C3)CC2)c(Cl)c1 [Example B31, [1-[1-[2-chloro-4-[[5-[4-(cyanomethoxy)-2,3-difluoro-phenyl]-1-methyl-imidazole-2-carbonyl]amino]benzoyl]piperidine-4-carbonyl]azetidin-3-yl]-trimethyl-ammonium; formate] | 0.25 µM
19 | COc1ccc(-c2cnc(C(=O)Nc3ccc(C(=O)NCc4cnn(CC(=O)N5CC[N+](C)(C)CC5)c4)c(Cl)c3)n2C)c(F)c1F [Example B32, N-[3-chloro-4-[1-[2-(4,4-dimethylpiperazin-4-ium-1-yl)-2-oxo-ethyl]pyrazol-4-yl]methylcarbamoyl]phenyl]-5-(2,3-difluoro-4-methoxy-phenyl)-1-methyl-imidazole-2-carboxamide; formate] | 0.2 µM
20 | COc1ccc(-c2cnc(C(=O)Nc3ccc(C(=O)N4CCN(C(=O)C5CC[N+](C)(C)CC5O)CC4)c(Cl)c3)n2C)c(F)c1F (stereo not shown) [Example B33, N-[3-chloro-4-[4-(3-hydroxy-1,1-dimethyl-piperidin-1-ium-4-carbonyl)piperazine-1-carbonyl]phenyl]-5-(2,3-difluoro-4-methoxy-phenyl)-1-methyl-imidazole-2-carboxamide; formate] | 0.13 µM
21 | COc1ccc(-c2cnc(C(=O)Nc3ccc(C(=O)N4CCN(C(=O)[C@@H]5COCC[N+]5(C)C)CC4)c(Cl)c3)n2C)c(F)c1F [Example B35, N-[3-chloro-4-[4-[(3S)-4,4-dimethylmorpholin-4-ium-3-carbonyl]piperazine-1-carbonyl]phenyl]-5-(2,3-difluoro-4-methoxy-phenyl)-1-methyl-imidazole-2-carboxamide; iodide] | 0.13 µM

Same assay, conditions: Acinetobacter baumannii, ATCC17961, 16 h, read-out: ATCC 17961 IC90, Acinetobacter baumannii ATCC17961; Iso-Sensitest broth; growth by OD 600 nm over 16 h; 35±2° C.

Row | Structure (SMILES) | IC90
22 | COc1ccc(-c2cnc(C(=O)Nc3ccc(C(=O)N4CCN(C(=O)[C@@H]5C[C@H](O)C[N+]5(C)C)CC4)c(Cl)c3)n2C)c(F)c1F [Example B34, N-[3-chloro-4-[4-[(2S,4S)-4-hydroxy-1,1-dimethyl-pyrrolidin-1-ium-2-carbonyl]piperazine-1-carbonyl]phenyl]-5-(2,3-difluoro-4-methoxy-phenyl)-1-methyl-imidazole-2-carboxamide; formate] | 0.14 µM
